Measured values from patent publication US9150592B2, “Heterocyclic nuclear hormone receptor modulators” (AbbVie Inc., priority 2012, dated 2015).

What was measured:
[1] = tested on: IL-6 in A549 cells stimulated with IL-1β; test: A549 Cell Assay to Measure Inflammation Markers (inhibition of IL-1β-induced IL-6); assay type: cell-based; details: intrinsic activity, Emax class ranges; for Emax: Homo sapiens, A549, A549 Cell Assay to Measure Inflammation Markers; for A549 Emax: A549 Cell Assay to Measure Inflammation Markers
Method in brief: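 Compound pre-incubated with A549 cells 1 h at 37 °C, then stimulated with IL-1β (1 ng/mL final, 0.1% DMSO). Supernatant IL-6 quantified by MSD immunoassay after a further incubation. IC50 and Emax derived.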

[2] = molecular target: T1, Glucocorticoid Receptor (GR) (Homo sapiens, UniProt P04150); test: GR Fluorescence Polarization Assay (PolarScreen Glucocorticoid Receptor Competitor Assay, Red); details: IC50 class ranges, read-out: GR binding
T1 construct: purchased Invitrogen P2893
T1 sequence (P04150 1-777): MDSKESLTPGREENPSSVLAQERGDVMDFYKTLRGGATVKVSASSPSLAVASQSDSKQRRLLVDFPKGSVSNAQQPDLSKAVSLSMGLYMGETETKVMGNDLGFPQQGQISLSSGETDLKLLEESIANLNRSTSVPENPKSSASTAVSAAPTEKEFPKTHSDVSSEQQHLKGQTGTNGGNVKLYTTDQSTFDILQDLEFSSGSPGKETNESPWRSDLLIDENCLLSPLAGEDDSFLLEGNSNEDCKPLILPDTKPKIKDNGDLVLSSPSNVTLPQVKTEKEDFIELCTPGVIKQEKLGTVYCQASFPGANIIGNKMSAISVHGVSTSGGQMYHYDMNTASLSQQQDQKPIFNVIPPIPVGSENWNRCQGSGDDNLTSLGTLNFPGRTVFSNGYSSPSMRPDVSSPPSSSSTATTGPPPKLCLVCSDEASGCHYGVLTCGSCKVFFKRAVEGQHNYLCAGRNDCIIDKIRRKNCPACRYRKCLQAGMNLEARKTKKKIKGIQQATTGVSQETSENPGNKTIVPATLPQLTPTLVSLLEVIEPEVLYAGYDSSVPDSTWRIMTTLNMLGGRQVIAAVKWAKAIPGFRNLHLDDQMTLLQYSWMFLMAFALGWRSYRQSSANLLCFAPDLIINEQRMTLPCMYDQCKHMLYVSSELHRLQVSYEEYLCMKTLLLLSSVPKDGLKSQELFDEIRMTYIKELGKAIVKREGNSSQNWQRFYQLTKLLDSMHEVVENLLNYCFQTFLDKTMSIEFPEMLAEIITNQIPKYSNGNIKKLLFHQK
Method in brief: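 Competitive fluorescence-polarization assay using a red fluorescent glucocorticoid tracer with human GR in kit buffer. Compounds serially diluted 1:4 in DMSO, incubated with tracer and GR overnight at 4° C, then polarization read.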

In the case of `Cc1cc(CCCO)ccc1[C@@H]1SC[C@H](C)Nc2c1c(-c1ccccn1)nn2C` (single isomer, unassigned) [M.52, 3-(4-(1,7-dimethyl-3-(pyridin-2-yl)-4,6,7,8-tetrahydro-1H-pyrazolo[3,4-e][1,4]thiazepin-4-yl)-3-methylphenyl)propan-1-ol], the Emax [1] is reported as under 50% and the IC50 [2] is reported as under 0.1 µM.
In the case of `CCn1nc(-c2ccccn2)c2c1NCCSC2c1ccc(C(=O)Nc2cc(C)no2)cc1C` (centres unmarked) [R.1, 4-(1-ethyl-3-(pyridin-2-yl)-4,6,7,8-tetrahydro-1H-pyrazolo[3,4-e][1,4]thiazepin-4-yl)-3-methyl-N-(3-methylisoxazol-5-yl)benzamide], the Emax [1] is reported as under 50% and the IC50 [2] is reported as under 0.1 µM.
Work on `Cc1cc(Cl)ccc1[C@@H]1S[C@H](CCO)CNc2c1c(C)nn2C` (single isomer, unassigned) [M.17, 2-[4-(4-chloro-2-methyl-phenyl)-1,3-dimethyl-4,6,7,8-tetrahydro-1H-pyrazolo[3,4-e][1,4]thiazepin-6-yl]-ethanol] yielded an Emax [1] of under 50% and an IC50 [2] of 0.1 to 1 µM.
`Cn1nc(C2CCCC2)c2c1NCCSC2c1ccc(Cl)cc1Cl` (centres unmarked) [D.77] was tested, and the Emax [1] was under 50% and the IC50 [2] was under 0.1 µM.
With `CCn1nc(-c2ccccn2)c2c1NCCCC2c1ccc(Br)cc1` (centres unmarked) the Emax [1] was over 70% and the IC50 [2] was under 0.1 µM.
`Cc1cc(Cl)cnc1C1SC(C)(C)CNc2c1c(C1CC1)nn2C` (centres unmarked) [D.50] was tested, and the Emax [1] was under 50% and the IC50 [2] was 0.1 to 1 µM.
In the case of `Cc1cc(C#CCO)ccc1[C@@H]1SC[C@H](C)Nc2c1c(-c1ccccn1)nn2C` (single isomer, unassigned) [M.71, 3-(4-(1,7-dimethyl-3-(pyridin-2-yl)-4,6,7,8-tetrahydro-1H-pyrazolo[3,4-e][1,4]thiazepin-4-yl)-3-methylphenyl)prop-2-yn-1-ol], the Emax [1] is reported as under 50% and the IC50 [2] is reported as under 0.1 µM.
`Cc1ccc(Cl)cc1C1SC(C)(C)CNc2c1c(C1CC1)nn2C` (centres unmarked) [D.46] was tested, and the Emax [1] was under 50% and the IC50 [2] was under 0.1 µM.
With `Cc1ncccc1NC(=O)c1ccc(C2SC(C)(C)CNc3c2c(C)nn3C)c(Cl)c1` (single isomer, unassigned) [M.9, 3-chloro-N-(2-methylpyridin-3-yl)-4-(1,3,6,6-tetramethyl-4,6,7,8-tetrahydro-1H-pyrazolo[3,4-e][1,4]thiazepin-4-yl)benzamide] the “A549 Emax” value [1] was “D (a compound with Emax<50%)” and the IC50 [2] was 0.1 to 1 µM.
`Cn1nc(C2CCCC2)c2c1NCC(C)(C)SC2c1ccc(Cl)cc1Cl` (centres unmarked) [D.79] gave an Emax [1] of under 50% and an IC50 [2] of under 0.1 µM.
For `Cc1cc(CCC(C)(C)O)ccc1[C@@H]1SC[C@@H](C)Nc2c1c(-c1ccccn1)nn2C` (single isomer, unassigned) [M.44, 4-(4-(1,7-dimethyl-3-(pyridin-2-yl)-4,6,7,8-tetrahydro-1H-pyrazolo[3,4-e][1,4]thiazepin-4-yl)-3-methylphenyl)-2-methylbutan-2-ol], the Emax [1] was over 60% and the IC50 [2] was under 0.1 µM.
In the case of `Cc1cc(C(=O)Nc2cccnc2C)ccc1[C@@H]1SCCNc2c1c(-c1ccccn1)nn2C`, the “A549 Emax” value [1] is reported as “A (a compound with Emax>70%)” and the IC50 [2] is reported as under 0.1 µM.
With `Cc1cc(C#N)ccc1C1SCCNc2onc(-c3ccccn3)c21` (centres unmarked) [G.9] the Emax [1] was under 50% and the IC50 [2] was under 0.1 µM.
Work on `Cc1nn(C)c2c1C(c1ccc(Cl)cc1Cl)SC(C)(C)CN2` (centres unmarked) [D.4, 4-(2,4-dichlorophenyl)-1,3,6,6-tetramethyl-7,8-dihydro-4H-pyrazolo[3,4-e][1,4]thiazepine] yielded an Emax [1] of under 50% and an IC50 [2] of under 0.1 µM.
With `Cc1cc(OCC(N)=O)ccc1[C@@H]1SC[C@@H](C)Nc2c1c(-c1ccccn1)nn2C` (single isomer, unassigned) [M.24, 2-(4-(1,7-dimethyl-3-(pyridin-2-yl)-4,6,7,8-tetrahydro-1H-pyrazolo[3,4-e][1,4]thiazepin-4-yl)-3-methylphenoxy)acetamide] the Emax [1] was over 70% and the IC50 [2] was under 0.1 µM.
`Cc1nn(C)c2c1C(c1ccc(Cl)cc1Cl)[S+]([O-])C(C)(C)CN2` (centres unmarked) [L.1, 4-(2,4-dichlorophenyl)-1,3,6,6-tetramethyl-7,8-dihydro-4H-pyrazolo[3,4-e][1,4]thiazepine 5-oxide] was tested, and the Emax [1] was under 50% and the IC50 [2] was over 10 µM.
For `Cc1cc(Cl)ccc1C1SCCNc2c1c(C1CCCO1)nn2C` (centres unmarked) [D.72], the Emax [1] was under 50% and the IC50 [2] was 0.1 to 1 µM.
`Cc1cc(O)ccc1C1SCCNc2c1c(-c1ccccn1)nn2C` (centres unmarked) [D.42, 3-methyl-4-[1-methyl-3-(2-pyridyl)-4,6,7,8-tetrahydropyrazolo[3,4-e][1,4]thiazepin-4-yl]phenol] gave an Emax [1] of over 50% and an IC50 [2] of under 0.1 µM.
With `Cc1nn(C)c2c1C(c1ccc(Cl)cc1Cl)SCCN2` (centres unmarked) [D.80] the Emax [1] was under 50% and the IC50 [2] was 0.1 to 1 µM.
`Cc1ccc(C#N)cc1C1SC(C)(C)CNc2c1c(C1CC1)nn2C` (centres unmarked) [G.5] gave an Emax [1] of under 50% and an IC50 [2] of 0.1 to 1 µM.
`Cc1cc(Br)ccc1[C@H]1SC[C@H](C(F)(F)F)Nc2c1c(-c1ccccn1)nn2C` (racemic) gave an Emax [1] of under 50% and an IC50 [2] of 0.1 to 1 µM.
With `Cc1cc(Cl)ccc1[C@@H]1S[C@H](CCO)CNc2c1c(-c1ccccn1)nn2C` (single isomer, unassigned) [M.12, 2-(4-(4-chloro-2-methylphenyl)-1-methyl-3-(pyridin-2-yl)-4,6,7,8-tetrahydro-1H-pyrazolo[3,4-e][1,4]thiazepin-6-yl)ethanol] the Emax [1] was under 50% and the IC50 [2] was 0.1 to 1 µM.
For `Cc1cc(Br)ccc1[C@@H]1SC[C@H](CO)Nc2c1c(-c1ccccn1)nn2C` (racemic) [K.9], the Emax [1] was under 50% and the IC50 [2] was under 0.1 µM.
Compound `Cc1cc(-c2nn(C)c3c2C(c2ccc(Cl)cc2C)SCCN3)no1` (centres unmarked) [D.43] has an Emax [1] of under 50% and an IC50 [2] of under 0.1 µM.
With `Cc1ccc(Cl)cc1C1SCCNc2c1c(-c1ccccn1)nn2C` (centres unmarked) [D.40] the Emax [1] was under 50% and the IC50 [2] was under 0.1 µM.
`Cc1cc(C(=O)Nc2cccnc2C)ccc1[C@@H]1SC[C@@H](C)Nc2c1c(-c1ccncn1)nn2C` (single isomer, unassigned) [M.57, 4-(1,7-dimethyl-3-(pyrimidin-4-yl)-4,6,7,8-tetrahydro-1H-pyrazolo[3,4-e][1,4]thiazepin-4-yl)-3-methyl-N-(2-methylpyridin-3-yl)benzamide] showed an Emax [1] of over 70% and an IC50 [2] of under 0.1 µM.
Work on `Cc1ncccc1NC(=O)c1ccc(C2SC(C)(C)CNc3c2c(C)nn3C)c(Cl)c1` (single isomer, unassigned) [M.8, 3-chloro-N-(2-methylpyridin-3-yl)-4-(1,3,6,6-tetramethyl-4,6,7,8-tetrahydro-1H-pyrazolo[3,4-e][1,4]thiazepin-4-yl)benzamide] yielded an Emax [1] of under 50% and an IC50 [2] of 1 to 10 µM.
`Cn1nc(C2CC2)c2c1NCC(C)(C)SC2c1ccc(Cl)cc1F` (centres unmarked) [D.53] showed an Emax [1] of under 50% and an IC50 [2] of under 0.1 µM.
With `Cc1cc2c(cnn2-c2ccc(F)cc2)cc1C1SCCNc2c1c(-c1ccccn1)nn2C` (centres unmarked) [D.109] the Emax [1] was over 70% and the IC50 [2] was under 0.1 µM.
Compound `Cn1nc(-c2ccccn2)c2c1NCCSC2c1ccc(C(=O)Nc2cccnc2)cc1Cl` (centres unmarked) [H.3] has an Emax [1] of under 50% and an IC50 [2] of 0.1 to 1 µM.
`Cn1nc(-c2ccccn2)c2c1NCCS[C@H]2c1ccc(Br)cc1Cl` (single isomer, unassigned) [M.2, 4-(4-bromo-2-chlorophenyl)-1-methyl-3-(pyridin-2-yl)-4,6,7,8-tetrahydro-1H-pyrazolo[3,4-e][1,4]thiazepine] gave an Emax [1] of under 50% and an IC50 [2] of under 0.1 µM.
`Cn1nc(-c2nccs2)c2c1NCCSC2c1ccc(Cl)cc1Cl` (centres unmarked) [D.16] showed an Emax [1] of under 50% and an IC50 [2] of under 0.1 µM.
With `Cc1ncccc1NC(=O)c1ccc(C2SCCNc3c2c(-c2ccccn2)nn3C)c(Cl)c1` (centres unmarked) [F.1, 3-chloro-N-(2-methyl-3-pyridyl)-4-[1-methyl-3-(2-pyridyl)-4,6,7,8-tetrahydropyrazolo[3,4-e][1,4]thiazepin-4-yl]benzamide] the Emax [1] was over 70% and the IC50 [2] was under 0.1 µM.
`CCn1nc(C2CC2)c2c1NCC(C)(C)SC2c1ccc(Cl)cc1C` (centres unmarked) [D.107] was tested, and the Emax [1] was under 50% and the IC50 [2] was under 0.1 µM.
In the case of `Cc1ccc(C2SCCNc3c2c(-c2ccccn2)nn3C)c(Cl)c1` (centres unmarked), the Emax [1] is reported as under 50% and the IC50 [2] is reported as under 0.1 µM.
Work on `Cc1ncccc1NC(=O)c1cc(C2SCCNc3c2c(-c2ccccn2)nn3C)c(C)s1` (centres unmarked) [F.6] yielded an Emax [1] of under 50% and an IC50 [2] of 1 to 10 µM.
With `Cc1cc(C#CCO)ccc1[C@@H]1SC[C@@H](C)Nc2c1c(-c1ccccn1)nn2C` (single isomer, unassigned) [M.70, 3-(4-(1,7-dimethyl-3-(pyridin-2-yl)-4,6,7,8-tetrahydro-1H-pyrazolo[3,4-e][1,4]thiazepin-4-yl)-3-methylphenyl)prop-2-yn-1-ol] the Emax [1] was under 50% and the IC50 [2] was under 0.1 µM.
`Cc1cc(OCc2cccnc2C)ccc1C1SCCNc2c1c(-c1ccccn1)nn2C` (centres unmarked) showed an Emax [1] of under 50% and an IC50 [2] of under 0.1 µM.
`CCn1nc(-c2ccccn2)c2c1NCCSC2c1ccc(C(=O)Nc2nnc(C)s2)cc1C` (centres unmarked) [S.4] was tested, and the Emax [1] was under 50% and the IC50 [2] was under 0.1 µM.
With `Cc1nn(C)c2c1C(c1ccc(Cl)cc1Cl)S(=O)(=O)C(C)(C)CN2` (centres unmarked) [L.4] the Emax [1] was under 50% and the IC50 [2] was 1 to 10 µM.
